{
  "source": "patent US5089529A",
  "about": "“Butanol derivatives” (Nippon Shinyaku Co., Ltd., priority 1983, dated 1992)",
  "key": {"[1]": {"test_system": "Arrhythmia in Dogs Caused by Digitalis", "experiment": "Arrhythmia in dogs caused by digitalis (digoxin)", "format": "in vivo, Beagle dogs", "conditions": "anesthetized dogs", "source_text": "Beagle dogs weighing 10 to 14 kg were used. […] The arrhythmia was judged by an electrocardiographic recording (lead II) and, when there was an appearance of descending or ascending big QRS complex, it was judged that ventricular arrhythmia appeared."}, "[2]": {"test_system": "Arrhythmia in Mice Caused by Aconitine", "experiment": "Action against arrhythmia in mice caused by aconitine", "format": "in vivo, ddY-Male mice", "conditions": "Mus musculus", "description": "A method by Nwangwu, et al (P.U. Nwangwu, T.L. Holcslow and S.J. Stohs: Arch. int. Pharmacodyn. 229, 219-226, 1977) was partly modified and the experiment was carried out. ddY-Male mice weighing 25 to 30 grams were used. One group was composed of four mice.\nArrhythmia was induced by infusion of aconitine at a concentration of 5 μg/ml in saline into a tail vein at the rate of 0.25 ml/min using a perfusion pump in mice anesthetized with Nembutal. Test drugs were administered orally or intraperitoneally 30 minutes prior to the start of infusion of aconitine. Incidentally, lidocaine was given intraperitoneally 15 minutes prior to administration of aconitine.\nThe status of arrhythmia was judged by an electrocardiographic recording (lead II) and, when the onset time of the arrhythmia was delayed more than \"average time of untreated group plus 2SD\", it was judged to have antiarrhythmic action. Then ED50 values were calculated by Weil's method from the effective rate at each dosage level."}},
  "note": "Read-outs that look alike come from different tables or passages of the source.",
  "data": [
    {"smiles": "CC(C)CN(CCCC(O)(c1ccccc1)c1ccccc1)CC(C)C", "note": "[Example 1, 4-Diisobutylamino-1,1-diphenyl-1-butanol]", "values": [
      {"measurement": "Duration of Action", "setting": "[1]; 1 mg/kg intravenous", "result": 400, "unit": "s"},
      {"measurement": "Efficacy Ratio", "setting": "[1]; 1 mg/kg intravenous", "result": 50.0, "unit": "%"},
      {"measurement": "Duration of Action", "setting": "[1]; 2 mg/kg intravenous", "result": 515, "unit": "s"},
      {"measurement": "Efficacy Ratio", "setting": "[1]; 2 mg/kg intravenous", "result": 62.5, "unit": "%"},
      {"measurement": "ED50", "setting": "[2]; ip, read-out: ED50, i.p.", "result": 14.9, "unit": "mg/kg"},
      {"measurement": "ED50", "setting": "[2]; po, read-out: ED50, p.o.", "result": 17.7, "unit": "mg/kg"}
    ]},
    {"smiles": "CC(C)CNCCCC(O)(c1ccccc1)c1ccccc1", "note": "[Example 10, 1,1-Diphenyl-4-isobutylamino-1-butanol]", "values": [
      {"measurement": "Duration of Action", "setting": "[1]; 2 mg/kg intravenous", "result": 500, "unit": "s"},
      {"measurement": "Efficacy Ratio", "setting": "[1]; 2 mg/kg intravenous", "result": 58.7, "unit": "%"},
      {"measurement": "ED50", "setting": "[2]; ip, read-out: ED50, i.p.", "result": 11.5, "unit": "mg/kg"},
      {"measurement": "ED50", "setting": "[2]; po, read-out: ED50, p.o.", "result": 20.3, "unit": "mg/kg"}
    ]},
    {"smiles": "CCN(CC)CC(=O)Nc1c(C)cccc1C", "note": "[Lidocaine, reference compound]", "values": [
      {"measurement": "Duration of Action", "setting": "[1]; 2 mg/kg intravenous", "result": 350, "unit": "s"},
      {"measurement": "Efficacy Ratio", "setting": "[1]; 2 mg/kg intravenous", "result": 50.0, "unit": "%"},
      {"measurement": "ED50", "setting": "[2]; ip, read-out: ED50, i.p.", "result": 35.4, "unit": "mg/kg"}
    ]},
    {"smiles": "CC(C)N(CCC(C(N)=O)(c1ccccc1)c1ccccn1)C(C)C", "note": "(centres unmarked) [Disopyramide, reference compound]", "values": [
      {"measurement": "Duration of Action", "setting": "[1]; 2 mg/kg intravenous", "result": 365, "unit": "s"},
      {"measurement": "Efficacy Ratio", "setting": "[1]; 2 mg/kg intravenous", "result": 57.1, "unit": "%"},
      {"measurement": "ED50", "setting": "[2]; ip, read-out: ED50, i.p.", "result": 12.5, "unit": "mg/kg"},
      {"measurement": "ED50", "setting": "[2]; po, read-out: ED50, p.o.", "result": 29.7, "unit": "mg/kg"}
    ]}
  ]
}
